Patent publication US20160263048A1, “BIOADHESIVE POLYMER-BASED CONTROLLED-RELEASE SYSTEMS, PRODUCTION PROCESS AND CLINICAL USES THEREOF” (priority 2010, published 2016)
Like-named read-outs stand apart in the source and are kept apart here.

Columns and labels:
[1] = cited from earlier work
[2] = Solubility in water; format: physicochemical; conditions: molar ratio TrA/HPβCD 1:10
Description: Currently used cyclodextrins are preferably semi-synthetic derivatives of β-cyclodextrin, soluble in highly polar organic solvents, marketed by Roquette or Wacker such as hydroxypropyl-βCD (HPβCD) and Methyl-βCD. The HPβCD marketed by Roquette under the name Kleptose® HP is an amorphous white powder, with a solubility in water higher than 1 g/ml. Further to this, it has a good stability both in acidic and in basic milieu and can be used to administrate drugs both by injection and by the oral route. The second one, under the name Kleptose® Crysmeb® exp, is a mixture of cyclodextrins which contain from one to seven methyl groups. Crysmeb® has an average of 4 methyl groups for one cyclodextrin molecule and has an average molecular weight of 1191 dalton. It is a white powder, easily soluble in water and its solubility grows with the temperature, and, in addition, it is very stable both in and acidic and in basic milieus.
Such a capability was tested for the buccal release of triamcinolone acetonide (TrA), a corticosteroid drug poorly soluble in water. According to the European Pharmacopeia, TrA is a drug that is practically not soluble in water, since its solubility in this vehicle is about 0.02 mg/ml. The presence of HPβCD in the film enhances TrA solubility by 600 fold, i.e., to about […] (molar ratio TrA/HPβCD 1:10). […]

enhancement of TrA solubility by presence of HPβCD [2]	TrA solubility in presence of HPβCD ([2]; no further enhancement at higher HPβCD concentration)	Compound	solubility in water ([1]; according to the European Pharmacopeia)	solubility in water ([1]; Kleptose® HP marketed by Roquette)
600 fold	about 4 % w/v	CC1(C)O[C@@H]2C[C@H]3[C@@H]4CCC5=CC(=O)C=C[C@]5(C)[C@@]4(F)[C@@H](O)C[C@]3(C)[C@]2(C(=O)CO)O1 [TrA, triamcinolone acetonide]	about 0.02 mg/ml	–
–	–	hydroxypropyl-βCD [HPβCD]	–	higher than 1 g/ml
